Data published in patent EP4667007A2, “NOVEL ASSOCIATION OF GASTRODIA ELATA AND VITAMIN B” (Futura S.r.l., priority 2024, dated 2025).
Read-outs that look alike come from different tables or passages of the source.

Key:
Caco-2 cells [1] = experiment: In vitro intestinal barrier model, absorption with fluorescent tracer (Transwell)
neuregulin 1 (NRG1) = experiment: 3D EngNT under PNI conditions, NRG1 ELISA; format: cell-based, rat; details: GGF 200 ng/mL, result in words
Procedure: To replicate a strong demyelination before stimulation with the two formulations and the single drugs, the 3D EngNT was pre-treated with 200 ng/mL glial growth factor 2 (GGF) starting on day 14 of maturation. This was necessary since the study needed to replicate the peripheral nerve tissue damage in vitro. Therefore, further studies were conducted to investigate the effects on cell viability and ROS production (Figures 5A-B). […] In contrast, both the individual components and formulations were able not only to re-establish physiological conditions, but also to induce a significant increase in cell viability and a decrease in ROS production (p<0.05). […]
This study was carried out in three different phases; the starting point of the study protocol was intended to study the absorption and transport processes of the novel formulation and individual components through the intestinal barrier using a 3D in vitro model with Caco-2 cells. […] Finally, in the third phase, peripheral nerve damage and demyelination were simulated in vitro, treating 3D EngNT with GGF 200ng/ml, to explore cell survival and mitochondrial activity, oxidative stress and ROS quantification, the inflammatory processes involved in neuropathy, nociceptive pathways for pain control, and the main pathways involved in the processes of myelin sheath protection and neurite formation. […]

Caco-2 cells [2] = details: human

SMILES	Absorption Rate (Caco-2 cells [1]; 2h, Gastrodin 25µM, Citicoline 250mM, Acetyl-L-Carnitine 7.5µM, Vit. B group 1mg/mL, Lipoic Acid 50µM) [%]	Absorption Rate (Caco-2 cells [1]; 3h, same concentrations) [%]	Absorption Rate (Caco-2 cells [1]; 4h, same concentrations) [%]	Absorption Rate (Caco-2 cells [1]; 5h, same concentrations) [%]	Absorption Rate (Caco-2 cells [1]; 6h, same concentrations) [%]	NRG1 activity (neuregulin 1 (NRG1))	Absorption Rate (Caco-2 cells [2]; 3 h) [%]	Absorption Rate (Caco-2 cells [2]; 4 h) [%]	Absorption Rate (Caco-2 cells [2]; 5 h) [%]	Absorption Rate (Caco-2 cells [2]; 6 h) [%]
CC(=O)O[C@H](CC(=O)[O-])C[N+](C)(C)C [Acetyl-L-Carnitine, (R)-3-acetyloxy-4-trimethylammonium-butanoate]	69.49	77.35	80.65	69.90	54.16	–	–	–	–	–
O=C(O)CCCCC1CCSS1 (stereo not shown) [Lipoic acid]	–	–	–	–	–	not able to improve it compared to GGF 200ng/mL	49.27	53.77	51.71	41.36
